Assay results taken from BindingDB's records for doi:10.1016/j.chembiol.2016.11.007 (University of Connecticut, 2016).
pIC50: −log10 of the molar value.

What was measured:
Assay in all cases: DHFR Inhibition Assay
Dihydrofolate reductase [1] = target: Dihydrofolate reductase (Staphylococcus aureus, UniProt P0A017)
[2] = target: Dihydrofolate reductase type 1 from Tn4003 (Staphylococcus aureus, UniProt P13955)
Dihydrofolate reductase [3] = target: T1, Dihydrofolate reductase (Staphylococcus aureus, UniProt Q4H3Y3)
T1 sequence (Q4H3Y3 whole entry): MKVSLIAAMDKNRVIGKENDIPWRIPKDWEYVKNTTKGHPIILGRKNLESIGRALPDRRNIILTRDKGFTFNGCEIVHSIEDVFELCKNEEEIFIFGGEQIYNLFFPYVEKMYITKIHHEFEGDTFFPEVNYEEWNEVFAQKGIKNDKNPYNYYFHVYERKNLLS

Dihydrofolate reductase [4] = target: T2, Dihydrofolate reductase (Staphylococcus aureus, UniProt C7C2U7)
T2 sequence (C7C2U7 whole entry): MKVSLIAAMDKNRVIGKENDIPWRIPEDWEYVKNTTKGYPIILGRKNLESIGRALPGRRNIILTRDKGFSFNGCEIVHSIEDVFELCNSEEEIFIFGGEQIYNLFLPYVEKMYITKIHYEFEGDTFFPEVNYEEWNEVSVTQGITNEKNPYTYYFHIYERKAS

Chain of Dihydrofolate reductase (Staphylococcus aureus, UniProt P0A017) (P0A017 whole entry): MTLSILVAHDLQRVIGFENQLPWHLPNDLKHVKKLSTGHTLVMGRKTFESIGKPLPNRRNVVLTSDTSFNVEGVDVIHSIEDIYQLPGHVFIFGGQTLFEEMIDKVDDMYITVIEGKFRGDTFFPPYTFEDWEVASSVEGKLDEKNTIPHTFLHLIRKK
Chain of Dihydrofolate reductase type 1 from Tn4003 (P13955 whole entry): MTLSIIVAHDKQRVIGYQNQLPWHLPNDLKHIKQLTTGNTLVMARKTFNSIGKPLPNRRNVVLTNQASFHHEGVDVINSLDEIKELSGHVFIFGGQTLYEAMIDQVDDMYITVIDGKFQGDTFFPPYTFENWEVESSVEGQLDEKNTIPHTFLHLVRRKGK

| Structure (SMILES) | pIC50 (Dihydrofolate reductase [1]) | pIC50 [2] | pIC50 (Dihydrofolate reductase [3]) | pIC50 (Dihydrofolate reductase [4]) |
| --- | --- | --- | --- | --- |
| CCc1nc(N)nc(N)c1C#C[C@@H](C)c1cc2c(c(-c3ccc(C(=O)O)cc3)c1)OCO2 [UCP1205] | 7.74 | 6.47 | 6.80 | 7.00 |
| CCc1nc(N)nc(N)c1C#CC(C)c1cc2c(c(-c3ccc(C(=O)O)cc3)c1)OCO2 (stereo unspecified) [UCP1191] | 8.00 | 6.49 | 7.06 | 7.39 |
| CCc1nc(N)nc(N)c1C#C[C@@H](C)c1cc(-c2ccc(C(=O)O)cc2)ccc1OC [UCP1164] |  | 5.06 |  |  |
| CCc1nc(N)nc(N)c1C#C[C@H](C)c1cc(OC)cc(-c2ccc(C(=O)O)cc2)c1 [UCP1173] |  | 6.57 |  |  |
| CCc1nc(N)nc(N)c1C#C[C@@H](C)c1cc(OC)cc(-c2ccc(C(=O)O)cc2)c1 [UCP1172] |  | 6.39 |  |  |
| CCc1nc(N)nc(N)c1C#C[C@H](C)c1cc2c(c(-c3ccc(C(=O)O)cc3)c1)OCO2 [UCP1206] | 7.77 | 6.74 | 6.72 | 7.27 |
| CCc1nc(N)nc(N)c1C#CCc1cc(OC)cc(-c2ccc(C(=O)O)cc2)c1 [UCP1175] |  | 6.01 | 5.85 | 6.77 |
| CCc1nc(N)nc(N)c1C#CCc1cc(OC)c(OC)c(-c2ccncc2)c1 [UCP1039] |  | 6.44 | 6.35 | 7.66 |
